{"source": "ChEMBL document CHEMBL5653610", "about": "“The novel phosphodiesterase 10A inhibitor THPP-1 has antipsychotic-like effects in rat and improves cognition in rat and rhesus monkey” (Neuropharmacology, 2013)", "key": {"[1]": {"target": "T1, cAMP and cAMP-inhibited cGMP 3',5'-cyclic phosphodiesterase 10A (Rattus norvegicus, UniProt Q9QYJ6)", "T1 sequence (Q9QYJ6 whole entry)": "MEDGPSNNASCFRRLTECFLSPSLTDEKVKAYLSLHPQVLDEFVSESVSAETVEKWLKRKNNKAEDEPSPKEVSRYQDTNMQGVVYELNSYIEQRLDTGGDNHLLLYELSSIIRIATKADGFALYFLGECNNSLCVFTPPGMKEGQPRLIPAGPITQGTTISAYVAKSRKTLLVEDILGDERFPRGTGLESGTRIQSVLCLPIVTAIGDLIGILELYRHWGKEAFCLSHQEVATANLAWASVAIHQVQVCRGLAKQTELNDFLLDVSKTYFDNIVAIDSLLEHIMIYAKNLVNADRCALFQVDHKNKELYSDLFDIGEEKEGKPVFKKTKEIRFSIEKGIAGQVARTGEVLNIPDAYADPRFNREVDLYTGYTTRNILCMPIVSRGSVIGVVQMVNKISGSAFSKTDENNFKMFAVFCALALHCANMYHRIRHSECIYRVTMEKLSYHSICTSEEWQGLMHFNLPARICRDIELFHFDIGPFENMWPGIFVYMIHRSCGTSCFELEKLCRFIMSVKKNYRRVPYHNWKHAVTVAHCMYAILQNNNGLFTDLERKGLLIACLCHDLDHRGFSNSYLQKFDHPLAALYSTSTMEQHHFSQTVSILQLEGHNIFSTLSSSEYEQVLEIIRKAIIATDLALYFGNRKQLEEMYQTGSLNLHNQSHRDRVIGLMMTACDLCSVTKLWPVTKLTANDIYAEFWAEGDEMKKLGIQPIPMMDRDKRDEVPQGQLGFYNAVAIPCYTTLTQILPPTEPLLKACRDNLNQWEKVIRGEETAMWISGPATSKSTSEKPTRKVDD", "test": "Inhibition of rat PDE10A2 assessed as inhibition of cAMP hydrolysis by fluorescence polarization assay"}, "[2]": {"test": "Protein binding in orally dosed rat plasma after 2 hrs by UPLC-MS analysis", "type": "ADME, organism-based", "settings": "route po, read-out: PPB (converted)"}, "[3]": {"test": "Protein binding in orally dosed dog plasma after 2 hrs by UPLC-MS analysis", "type": "ADME, organism-based, Canis lupus familiaris", "settings": "route po, read-out: PPB (converted)"}, "[4]": {"test": "Protein binding in orally dosed rhesus monkey plasma after 4 hrs by UPLC-MS analysis", "type": "ADME, organism-based, Macaca mulatta", "settings": "route po, read-out: PPB (converted)"}, "[5]": {"test": "Clearance in orally dosed rat after 2 hrs by UPLC-MS analysis", "type": "ADME, organism-based", "settings": "in vivo, route po"}, "[6]": {"test": "Clearance in orally dosed dog after 2 hrs by UPLC-MS analysis", "type": "ADME, organism-based, Canis lupus familiaris", "settings": "in vivo, route po"}, "[7]": {"test": "Clearance in orally dosed rhesus monkey after 4 hrs by UPLC-MS analysis", "type": "ADME, organism-based, Macaca mulatta", "settings": "in vivo, route po"}, "[8]": {"test": "Half life in orally dosed rat after 2 hrs by UPLC-MS analysis", "type": "ADME, organism-based", "settings": "in vivo, route po"}, "[9]": {"test": "Half life in orally dosed dog after 2 hrs by UPLC-MS analysis", "type": "ADME, organism-based, Canis lupus familiaris", "settings": "in vivo, route po"}, "[10]": {"test": "Half life in orally dosed rhesus monkey after 4 hrs by UPLC-MS analysis", "type": "ADME, organism-based, Macaca mulatta", "settings": "in vivo, route po"}, "[11]": {"test": "Bioavailability in orally dosed rat after 2 hrs by UPLC-MS analysis", "type": "ADME, organism-based", "settings": "in vivo, route po"}, "[12]": {"test": "Bioavailability in orally dosed dog after 2 hrs by UPLC-MS analysis", "type": "ADME, organism-based, Canis lupus familiaris", "settings": "in vivo, route po"}, "[13]": {"test": "Bioavailability in orally dosed rhesus monkey after 4 hrs by UPLC-MS analysis", "type": "ADME, organism-based, Macaca mulatta", "settings": "in vivo, route po"}, "Rattus norvegicus [14]": {"tested_on": "Rattus norvegicus", "test": "In-vivo increase of GluR1 S845 phosphorylation in membrane fraction of Wistar Hannover rat striatal tissues at 3 to 30 mg/kg, po after 2 hrs by Western blot analysis", "type": "functional, organism-based", "settings": "Striatum, dose 3-30 mg/kg"}, "Rattus norvegicus [15]": {"tested_on": "Rattus norvegicus", "test": "Effect on total levels of GluR1 protein in membrane fraction of Wistar Hannover rat striatal tissues at 3 to 30 mg/kg, po by Western blot analysis", "type": "functional, organism-based", "settings": "Striatum, dose 3-30 mg/kg"}, "Rattus norvegicus [16]": {"tested_on": "Rattus norvegicus", "test": "In-vivo increase of GluR1 S845 phosphorylation in membrane fraction of Wistar Hannover rat striatal tissues at 30 mg/kg, po after 2 hrs by Western blot analysis relative to control", "type": "functional, Striatum"}, "Rattus norvegicus [17]": {"tested_on": "Rattus norvegicus", "test": "In-vivo increase of pGluR1/GluR1 ratios in membrane fraction of Wistar Hannover rat striatal tissues at 3 to 30 mg/kg, po after 2 hrs by Western blot analysis", "type": "functional, organism-based", "settings": "Striatum, dose 3-30 mg/kg"}, "Rattus norvegicus [18]": {"tested_on": "Rattus norvegicus", "test": "In-vivo increase of ERK in membrane fraction of Wistar Hannover rat striatal tissues at 30 mg/kg, po after 2 hrs by Western blot analysis relative to control", "type": "functional, organism-based", "settings": "Striatum"}, "Rattus norvegicus [19]": {"tested_on": "Rattus norvegicus", "test": "In-vivo increase of CREB phosphorylation in membrane fraction of Wistar Hannover rat striatal tissues at 10 mg/kg, po after 2 hrs by Western blot analysis relative to control", "type": "functional, Striatum"}, "Rattus norvegicus [20]": {"tested_on": "Rattus norvegicus", "test": "Effect on concentration of cyclic nucleotides in Wistar Hannover rat striatal tissues at 3 to 30 mg/kg, po by Western blot analysis", "type": "functional, organism-based", "settings": "Striatum, dose 3-30 mg/kg"}, "Rattus norvegicus [21]": {"tested_on": "Rattus norvegicus", "test": "Effect on phosphorylation of proteins in other brain regions (prefrontal cortex and hippocampus) in Wistar Hannover rat at 3 to 30 mg/kg, po by Western blot analysis", "type": "functional, organism-based", "settings": "dose 3-30 mg/kg"}, "[22]": {"test": "Total drug level in Wistar Hannover rat plasma at 0.1 mg/kg, po after 2 hrs by UPLC-MS analysis", "type": "ADME, organism-based"}, "[23]": {"test": "Total drug level in Wistar Hannover rat plasma at 0.3 mg/kg, po after 2 hrs by UPLC-MS analysis", "type": "ADME, organism-based"}, "[24]": {"test": "Total drug level in Wistar Hannover rat plasma at 1 mg/kg, po after 2 hrs by UPLC-MS analysis", "type": "ADME, organism-based"}, "[25]": {"test": "Total drug level in Wistar Hannover rat plasma at 3 mg/kg, po after 2 hrs by UPLC-MS analysis", "type": "ADME, organism-based"}, "[26]": {"test": "Total drug level in Wistar Hannover rat plasma at 10 mg/kg, po after 2 hrs by UPLC-MS analysis", "type": "ADME, organism-based"}, "[27]": {"test": "Total drug level in Wistar Hannover rat plasma at 30 mg/kg, po after 2 hrs by UPLC-MS analysis", "type": "ADME, organism-based"}}, "note": "pKi: −log10 of the molar value. Activity calls are given as the source filed them. The calls are words filed in the database; no cut-off is given here."}
{"smiles": "COCCOc1nc(-c2ccc(Cl)nc2)nc2c1CN(C(=O)c1ncn3ccccc13)CC2", "note": "[THPP-1]", "values": [{"measurement": "pKi", "setting": "[1]", "value": 8.89}, {"measurement": "fraction unbound at 2 h", "setting": "[2]", "value": 0.018}, {"measurement": "fraction unbound at 2 h", "setting": "[3]", "value": 0.03}, {"measurement": "fraction unbound at 4 h", "setting": "[4]", "value": 0.012}, {"measurement": "CL/F", "setting": "[5]", "value": 6, "unit": "mL/min/kg"}, {"measurement": "CL/F", "setting": "[6]", "value": 3.8, "unit": "mL/min/kg"}, {"measurement": "CL/F", "setting": "[7]", "value": 7.7, "unit": "mL/min/kg"}, {"measurement": "half-life", "setting": "[8]", "value": 1.4, "unit": "h"}, {"measurement": "half-life", "setting": "[9]", "value": 7.2, "unit": "h"}, {"measurement": "half-life", "setting": "[10]", "value": 1.4, "unit": "h"}, {"measurement": "bioavailability", "setting": "[11]", "value": 47, "unit": "%"}, {"measurement": "bioavailability", "setting": "[12]", "value": 79, "unit": "%"}, {"measurement": "bioavailability", "setting": "[13]", "value": 31, "unit": "%"}, {"measurement": "Activity", "setting": "Rattus norvegicus [14]", "value": "Dose-Dependent Effect"}, {"measurement": "Activity", "setting": "Rattus norvegicus [15]", "value": "inactive"}, {"measurement": "fold change (FC)", "setting": "Rattus norvegicus [16]", "value": 9.5}, {"measurement": "Activity", "setting": "Rattus norvegicus [17]", "value": "Active"}, {"measurement": "Activity", "setting": "Rattus norvegicus [18]", "value": "Dose-Dependent Effect"}, {"measurement": "fold change (FC)", "setting": "Rattus norvegicus [19]", "value": 2.3}, {"measurement": "Activity", "setting": "Rattus norvegicus [20]", "value": "inactive"}, {"measurement": "Activity", "setting": "Rattus norvegicus [21]", "value": "inactive"}, {"measurement": "concentration at 2 h", "setting": "[22]", "value": 32, "unit": "nM"}, {"measurement": "concentration at 2 h", "setting": "[23]", "value": 117, "unit": "nM"}, {"measurement": "concentration at 2 h", "setting": "[24]", "value": 270, "unit": "nM"}, {"measurement": "concentration at 2 h", "setting": "[25]", "value": 745, "unit": "nM"}, {"measurement": "concentration at 2 h", "setting": "[26]", "value": 1320, "unit": "nM"}, {"measurement": "concentration at 2 h", "setting": "[27]", "value": 1800, "unit": "nM"}]}
